Test results: ChEMBL document CHEMBL1201862, “PubChem BioAssay data set” (2004)
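Exposure lasted 48 hours, with cells grown in 96-well plates and compounds tested at five concentrations. GI50: concentration for 50% inhibition of growth.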 Active and inactive are the calls of the source. Rule as the data show it: active = GI50 up to about 1.1 µM and inactive = higher.

Assays:
Experiment in all cases: inhibition of tumour cell growth, NCI panel, 48 h
786-0 = system: 786-0
A549 = system: A549
ACHN = system: ACHN
BT-549 = system: BT-549
CAKI-1 = system: CAKI-1
CCRF-CEM = system: CCRF-CEM
COLO 205 = system: COLO 205
EKVX = system: EKVX
HCC 2998 = system: HCC 2998
HCT-116 = system: HCT-116
HCT-15 = system: HCT-15
HL-60 = system: HL-60
HOP-62 = system: HOP-62
HOP-92 = system: HOP-92
HT-29 = system: HT-29
Hs-578T = system: Hs-578T
IGROV-1 = system: IGROV-1
K562 = system: K562
KM12 = system: KM12
M14 = system: M14
MCF7 = system: MCF7
MDA-MB-231 = system: MDA-MB-231
MDA-MB-435 = system: MDA-MB-435
MOLT-4 = system: MOLT-4
Malme-3M = system: Malme-3M
NCI-H226 = system: NCI-H226
NCI-H23 = system: NCI-H23
NCI-H460 = system: NCI-H460
NCI-H522 = system: NCI-H522
NCI/ADR-RES = system: NCI/ADR-RES
OVCAR-3 = system: OVCAR-3
OVCAR-4 = system: OVCAR-4
OVCAR-5 = system: OVCAR-5
OVCAR-8 = system: OVCAR-8
PC-3 = system: PC-3
RPMI-8226 = system: RPMI-8226
RXF 393 = system: RXF 393
SF-268 = system: SF-268
SF-295 = system: SF-295
SF-539 = system: SF-539
SK-MEL-28 = system: SK-MEL-28
SK-MEL-2 = system: SK-MEL-2
SK-MEL-5 = system: SK-MEL-5
SK-OV-3 = system: SK-OV-3
SNB-19 = system: SNB-19
SNB-75 = system: SNB-75
SR = system: SR
SW-620 = system: SW-620
TK-10 = system: TK-10
U-251 = system: U-251
UACC-257 = system: UACC-257
UACC-62 = system: UACC-62
UO-31 = system: UO-31

Structure (SMILES): Cc1cccc(NS(=O)(=O)c2ccc(/N=N/c3c(O)c(C(=O)O)cc4ccccc34)cc2)n1
- GI50 (786-0): > 100 µM (inactive)
- GI50 (A549): > 100 µM (inactive)
- GI50 (ACHN): > 100 µM (inactive)
- GI50 (BT-549): > 100 µM (inactive)
- GI50 (CAKI-1): > 100 µM (inactive)
- GI50 (CCRF-CEM): > 100 µM (inactive)
- GI50 (COLO 205): > 100 µM (inactive)
- GI50 (EKVX): > 100 µM (inactive)
- GI50 (HCC 2998): > 100 µM (inactive)
- GI50 (HCT-116): > 100 µM (inactive)
- GI50 (HCT-15): > 100 µM
- GI50 (HL-60): > 100 µM (inactive)
- GI50 (HOP-62): > 100 µM (inactive)
- GI50 (HOP-92): > 100 µM (inactive)
- GI50 (HT-29): > 100 µM (inactive)
- GI50 (Hs-578T): > 100 µM (inactive)
- GI50 (IGROV-1): > 100 µM (inactive)
- GI50 (K562): > 100 µM (inactive)
- GI50 (KM12): > 100 µM (inactive)
- GI50 (M14): > 100 µM (inactive)
- GI50 (MCF7): > 100 µM (inactive)
- GI50 (MDA-MB-231): > 100 µM (inactive)
- GI50 (MDA-MB-435): > 100 µM (inactive)
- GI50 (MOLT-4): > 100 µM (inactive)
- GI50 (Malme-3M): > 100 µM (inactive)
- GI50 (NCI-H226): > 100 µM (inactive)
- GI50 (NCI-H23): > 100 µM (inactive)
- GI50 (NCI-H460): > 100 µM (inactive)
- GI50 (NCI-H522): > 100 µM (inactive)
- GI50 (NCI/ADR-RES): > 100 µM (inactive)
- GI50 (OVCAR-3): > 100 µM (inactive)
- GI50 (OVCAR-4): > 100 µM (inactive)
- GI50 (OVCAR-5): > 100 µM (inactive)
- GI50 (OVCAR-8): > 100 µM (inactive)
- GI50 (PC-3): > 100 µM (inactive)
- GI50 (RPMI-8226): > 100 µM (inactive)
- GI50 (RXF 393): > 100 µM (inactive)
- GI50 (SF-268): > 100 µM (inactive)
- GI50 (SF-295): > 100 µM (inactive)
- GI50 (SF-539): > 100 µM (inactive)
- GI50 (SK-MEL-28): > 100 µM (inactive)
- GI50 (SK-MEL-2): > 100 µM (inactive)
- GI50 (SK-MEL-5): > 100 µM (inactive)
- GI50 (SK-OV-3): > 100 µM (inactive)
- GI50 (SNB-19): > 100 µM (inactive)
- GI50 (SNB-75): > 100 µM (inactive)
- GI50 (SR): > 100 µM (inactive)
- GI50 (SW-620): > 100 µM (inactive)
- GI50 (TK-10): > 100 µM (inactive)
- GI50 (U-251): > 100 µM (inactive)
- GI50 (UACC-257): > 100 µM (inactive)
- GI50 (UACC-62): > 100 µM (inactive)
- GI50 (UO-31): > 100 µM (inactive)
